Measured values as given in patent US20260125346A1, “Isoquinolinone Derivatives and 4H-Quinolizinone Derivatives and Pharmaceutical Compositions Thereof for the Treatment of Disease” (BeOne Medicines I GmbH, priority 2023, published 2026).

What was measured:
[1] = test system: WT cell line SK-BR-3; assay: Cell Proliferation Assay (CellTiter-Glo), SK-BR-3; format: cell-based; settings: Homo sapiens, 72 h; SK-BR-3, 3 days treatment
Protocol: (§1) The SK-BR-3 (ATCC, HTB-30) cell line was obtained from the American Type Culture Collection. Cells were maintained in McCoy' 5A medium (Gibco, REF #16600108) supplemented with 10% Fetal Bovine Serum. Cultures were maintained in a humidified incubator at 37° C. under 5% CO2/95% air.
Cell Proliferation Assay. PI3Kα H1047R mutated cell line T-47D cells and WT cell line SK-BR-3 were seeded at a density of 3×10^3 cells per well in 96 well plate (Xinyou Biotechnology, 062096) in 95 μL of culture medium, overnight. Compounds dissolved in 10 mM stock solutions in DMSO were serially diluted 1:3 in DMSO to generate a 9-point dilution series and plated using an INTEGRA ASSIST Plus pipetting robot. A 20× intermediate compound dilution plate in RPMI1640 medium (200 M starting compound concentration in 2% DMSO) was then prepared. Five μL of intermediate serially diluted compounds were added to the cell plate to final concentrations ranging from […] to 1 nM in 0.1% DMSO. 0.1% DMSO alone was used to establish the maximum signal and medium without cells was for minimum signal. After 3 days treatment, equilibrated the plate and its contents at room temperature for approximately 30 minutes. Added 30 μL CellTiter-Glo® Reagent (Promega, REF #G7571) to each well. Then mixed contents for 5 min on plate shaker to induce cell lysis. Incubated at room temperature for 10 minutes to stabilize luminescent signal. The plates were read on PHERAstar FSX Microplate reader using standard luminescence settings.
Relative IC50 values were determined using luminescence units by calculating percent inhibition with respect to the in-plate “MIN” (medium only) and “MAX” (0.1% DMSO) controls. The data were analyzed using a 4-parameter nonlinear logistic equation (four-parameter logistic concentration-response curve): Y=bottom+[(top−bottom)/1+(X/IC50) slope] • where Y=% inhibition, X=concentration of inhibitor, bottom=minimum value of y attained by curve-fit, top=maximum value of y attained by curve-fit and slope=steepness of curve at the IC50.

[2] = test system: WT cell line SK-BR-3; assay: Phospho-AKT (Ser473) Inhibition Assay (HTRF), SK-BR-3; format: cell-based; settings: Homo sapiens; SK-BR-3, 1 hour treatment; read-out: p-AKT Inhibition assay (S473) IC50 SK-BR-3
Protocol: as §1
(§2) Phospho-AKT Inhibition Assay. HTRF Phospho-AKT (Ser473) detection kit (Cisbio, REF #64AKSPEH) was used in phosphor-AKT inhibition assay. For compound screening, PI3Kα H1047R mutated cell line T-47D and WT cell line SK-BR-3 cells were seeded at a density of 3×10^4 cells per well in 96 well plate (Costar, REF #3599) in 95 μL of assay medium (MEM medium (Gibco, REF #12561-056) with 1×NEAA (Gibco, REF #11140-050), 1 mM sodium pyruvate (Gibco, REF #11360-070), and 1 g/ml human insulin (Topscience, REF #T8221)), overnight. Compounds dissolved in 10 mM stock solutions in DMSO were serially diluted 1:3 in DMSO to generate an 11-point dilution series and plated using an INTEGRA ASSIST PLUS pipetting robot. A 20× intermediate compound dilution plate in RPMI1640 medium (200 M starting compound concentration in 2% DMSO) was then prepared. Five μL of intermediate serially diluted compounds were added to the cell plate to final concentrations ranging from […] to 0.1 nM in 0.1% DMSO. 0.1% DMSO alone was used to establish the maximum signal and GDC0077 at final concentration of 10 μM was used as a reference compound for minimum signal. After 1 hour treatment, removed medium and added 50 μL of supplemented lysis buffer (1×) immediately. Incubated for at least 30 minutes at room temperature under shaking. Transferred 16 μL of cell lysate from the 96-well cell-culture plate to a 384-white detection plate (PerkinElmer, Optiplate 384, 6007299). Added 4 μL of premixed antibody solutions prepared in the detection buffer. Incubated 4 hours at room temperature in dark. The plates were read on PHERAstar FSX Microplate reader (BMG LABTECH, Inc.) using standard HTRF settings.
(§3) Relative IC50 values were determined using luminescence units by calculating percent inhibition with respect to the in-plate “MIN” (GDC0077 reference control) and “MAX” (DMSO) controls. The data were analyzed using a 4-parameter nonlinear logistic equation (four-parameter logistic concentration-response curve): Y=bottom+[(top−bottom)/1+(X/IC50) slope] • where Y=% inhibition, X=concentration of inhibitor, bottom=minimum value of y attained by curve-fit, top=maximum value of y attained by curve-fit and slope=steepness of curve at the IC50.

[3] = test system: PI3Kα H1047R mutated cell line T-47D; assay: Phospho-AKT (Ser473) Inhibition Assay (HTRF), T-47D; format: cell-based; settings: for IC50: Homo sapiens, T47D, T-47D, 1 hour treatment, read-out: p-AKT Inhibition assay (S473) IC50 T-47D; for Selectivity: SK-BR-3/T-47D (p-AKT): p-AKT (S473) IC50 ratio
Protocol: Cell Culture Maintenance. The T-47D (ATCC, HTB-133) cell line was obtained from the American Type Culture Collection. Cells were maintained in RPMI1640 medium (Gibco, REF #22400105) supplemented with 10% Fetal Bovine Serum (Gibco, REF #10091148). Cultures were maintained in a humidified incubator at 37° C. under 5% CO2/95% air.
as §2, §3

[4] = molecular target: PI3Kα (p110/p85) kinase (wild type, "WT") (Homo sapiens, UniProt P42336); assay: PI3Kα (p110/p85) kinase ADP-Glo Assay; format: biochemical; settings: 25 uM ATP
Chain of PI3Kα (p110/p85) kinase (wild type, "WT") (P42336 whole entry): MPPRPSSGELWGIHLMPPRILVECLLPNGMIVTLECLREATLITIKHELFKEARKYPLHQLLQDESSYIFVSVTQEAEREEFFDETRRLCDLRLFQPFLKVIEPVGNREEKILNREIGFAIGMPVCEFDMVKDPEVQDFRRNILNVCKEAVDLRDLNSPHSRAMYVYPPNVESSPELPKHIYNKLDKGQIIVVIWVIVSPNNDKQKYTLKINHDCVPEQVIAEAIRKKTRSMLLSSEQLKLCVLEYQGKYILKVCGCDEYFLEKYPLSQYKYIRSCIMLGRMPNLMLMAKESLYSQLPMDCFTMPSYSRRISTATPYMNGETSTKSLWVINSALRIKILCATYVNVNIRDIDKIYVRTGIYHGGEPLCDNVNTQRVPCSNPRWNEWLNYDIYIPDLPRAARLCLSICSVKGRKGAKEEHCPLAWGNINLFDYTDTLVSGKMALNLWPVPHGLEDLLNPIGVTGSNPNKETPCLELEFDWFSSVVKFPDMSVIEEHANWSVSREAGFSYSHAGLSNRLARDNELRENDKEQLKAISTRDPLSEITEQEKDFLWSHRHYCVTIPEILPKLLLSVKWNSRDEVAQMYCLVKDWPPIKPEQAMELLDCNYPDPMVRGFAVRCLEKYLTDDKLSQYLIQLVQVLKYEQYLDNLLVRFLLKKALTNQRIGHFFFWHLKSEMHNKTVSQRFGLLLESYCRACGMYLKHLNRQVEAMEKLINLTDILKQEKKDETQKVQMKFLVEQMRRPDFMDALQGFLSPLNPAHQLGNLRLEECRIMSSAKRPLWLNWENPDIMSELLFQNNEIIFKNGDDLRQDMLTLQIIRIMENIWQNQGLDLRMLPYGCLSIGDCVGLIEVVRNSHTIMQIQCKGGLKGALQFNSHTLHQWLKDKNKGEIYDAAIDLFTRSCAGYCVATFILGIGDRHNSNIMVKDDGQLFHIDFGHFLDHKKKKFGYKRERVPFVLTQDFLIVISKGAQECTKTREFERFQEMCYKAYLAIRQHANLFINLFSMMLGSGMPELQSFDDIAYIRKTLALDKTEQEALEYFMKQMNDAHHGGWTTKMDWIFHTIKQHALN
Chain of PI3Kα (p110/p85) kinase (wild type, "WT") (P27986 whole entry partner): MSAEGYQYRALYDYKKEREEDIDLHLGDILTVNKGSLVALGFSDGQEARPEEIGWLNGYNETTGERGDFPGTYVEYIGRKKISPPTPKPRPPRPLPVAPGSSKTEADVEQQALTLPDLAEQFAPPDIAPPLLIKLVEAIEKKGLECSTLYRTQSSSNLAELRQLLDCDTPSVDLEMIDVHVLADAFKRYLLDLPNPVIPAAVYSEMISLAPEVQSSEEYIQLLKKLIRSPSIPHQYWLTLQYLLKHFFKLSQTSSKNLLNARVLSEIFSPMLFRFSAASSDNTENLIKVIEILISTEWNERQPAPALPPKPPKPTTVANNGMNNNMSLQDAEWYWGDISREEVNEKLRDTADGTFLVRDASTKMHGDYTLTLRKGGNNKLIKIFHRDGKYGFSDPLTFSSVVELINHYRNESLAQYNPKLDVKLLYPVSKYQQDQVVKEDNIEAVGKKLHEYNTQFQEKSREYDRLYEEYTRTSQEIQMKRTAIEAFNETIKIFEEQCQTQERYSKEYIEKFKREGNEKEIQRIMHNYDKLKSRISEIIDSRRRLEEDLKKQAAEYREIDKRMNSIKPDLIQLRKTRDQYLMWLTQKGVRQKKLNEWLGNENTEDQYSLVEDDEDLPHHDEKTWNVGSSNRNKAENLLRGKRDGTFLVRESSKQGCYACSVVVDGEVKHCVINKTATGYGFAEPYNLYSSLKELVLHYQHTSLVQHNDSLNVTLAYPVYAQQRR
Protocol: PI3Kα (p110/p85) kinase ADP-Glo Assay. Certain compounds disclosed herein were tested for inhibition of PI3Kα (p110/p85) kinase (wild type, “WT”) in assays based on the ADP-Glo™ Kinase Assay methodology. The assays were carried out in 384-well white plates in a reaction mixture containing PI3Kα (p110/p85) kinase, 25 µM ATP, 5.35 µg/mL PI(4,5)P2:PS Lipid Kinase Substrate and […] compound in buffer containing 50 mM HEPES pH7.5, 50 mM NaCl, 3 mM MgCl2, 0.0025% BSA and 2 mM DTT. PI3Kα (p110/p85) kinase was incubated with Lipid Kinase Substrate and compound for 30 minutes at room temperature and the reaction was initiated by the addition of ATP. After reaction at room temperature for 120 minutes, ADP-Glo™ reagents were added to terminate the kinase reaction and deplete the remaining ATP according to the manufacture's instruction (Promega Corporation). After incubation at room temperature for 1 hour, Kinase Detection Reagent (prepared by reconstituting the lyophilized Kinase Detection Substrate with Kinase Detection Buffer of the kit) was added to convert the ADP to ATP and to allow for the newly synthesized ATP to be measured using a luciferase/luciferin reaction. After incubation at room temperature for 0.5 hour, chemiluminescence signals were recorded on a PHERAstar FSX plate reader (BMG Labtech). The chemiluminescence generated in this assay correlates to the amount of ADP generated in the kinase assay, indicating kinase activity. […] The IC50 for each compound was derived from fitting the data to the four-parameter logistic equation by Dotmatics.

| IC50 [1] [nM] | IC50 [2] [nM] | IC50 [3] [nM] | IC50 [4] [nM] | Structure (SMILES) | Selectivity: SK-BR-3/T-47D (p-AKT) [3] |
| --- | --- | --- | --- | --- | --- |
| > 10000 | 2110 | 43.5 | 2770 | Cc1cc(C(C)Nc2ccccc2C(=O)O)c2cc(-c3ccccc3)n(C)c(=O)c2c1 (centres unmarked) [Example 1, 2-((1-(2,7-dimethyl-1-oxo-3-phenyl-1,2-dihydroisoquinolin-5-yl)ethyl)amino)benzoic acid] | 48.6 |
| > 10000 | 2850 | 66.3 | 22400 | Cc1cc(C(C)Nc2ccccc2C(=O)O)c2cc(-c3ccccc3C)n(C)c(=O)c2c1 (centres unmarked) [Example 2, 2-((1-(2,7-dimethyl-1-oxo-3-(o-tolyl)-1,2-dihydroisoquinolin-5-yl)ethyl)amino)benzoic acid] | 43.0 |
| > 10000 | 3210 | 62.4 | 2880 | Cc1cc(C(C)Nc2ccccc2C(=O)O)c2cc(-c3ccccc3F)n(C)c(=O)c2c1 (centres unmarked) [Example 6, 2-((1-(3-(2-fluorophenyl)-2,7-dimethyl-1-oxo-1,2-dihydroisoquinolin-5-yl)ethyl)amino)benzoic acid] | 51.5 |
| > 10000 | 1860 | 53.9 | 2520 | Cc1cc(C(C)Nc2ccccc2C(=O)O)c2cc(-c3cccc(F)c3)n(C)c(=O)c2c1 (centres unmarked) [Example 7, 2-((1-(3-(3-fluorophenyl)-2,7-dimethyl-1-oxo-1,2-dihydroisoquinolin-5-yl)ethyl)amino)benzoic acid] | 34.5 |

The remaining lines, values behind:

| Structure (SMILES) | IC50 [1] [nM] | IC50 [2] [nM] | IC50 [3] [nM] | IC50 [4] [nM] | Selectivity: SK-BR-3/T-47D (p-AKT) [3] |
| --- | --- | --- | --- | --- | --- |
| Cc1cc(C(C)Nc2ccccc2C(=O)O)c2cc(-c3cccc(C#N)c3)n(C)c(=O)c2c1 (centres unmarked) [Example 3, 2-((1-(3-(3-cyanophenyl)-2,7-dimethyl-1-oxo-1,2-dihydroisoquinolin-5-yl)ethyl)amino)benzoic acid] | > 10000 | 4350 | 168 | 9850 | 26.0 |
| Cc1cc(C(C)Nc2ccccc2C(=O)O)c2cc(-c3cccc(C(C)(C)C#N)c3)n(C)c(=O)c2c1 (centres unmarked) [Example 5, 2-((1-(3-(3-(2-cyanopropan-2-yl)phenyl)-2,7-dimethyl-1-oxo-1,2-dihydroisoquinolin-5-yl)ethyl)amino)benzoic acid] | > 10000 | 4620 | 135 | 5280 | 34.3 |
| Cc1cc(C(C)Nc2ccccc2C(=O)O)c2cc(-c3ccc(F)cc3)n(C)c(=O)c2c1 (centres unmarked) [Example 8, 2-((1-(3-(4-fluorophenyl)-2,7-dimethyl-1-oxo-1,2-dihydroisoquinolin-5-yl)ethyl)amino)benzoic acid] | > 10000 | 2500 | 66.4 | 5960 | 37.7 |
| Cc1cc(C(C)Nc2ccccc2C(=O)O)c2cc(-c3ccc(F)c(F)c3)n(C)c(=O)c2c1 (centres unmarked) [Example 9, 2-((1-(3-(3,4-difluorophenyl)-2,7-dimethyl-1-oxo-1,2-dihydroisoquinolin-5-yl)ethyl)amino)benzoic acid] | > 10000 | 3640 | 70.9 | 2710 | 51.4 |
| Cc1cc(C(C)Nc2ccccc2C(=O)O)c2cc(-c3cc(F)cc(F)c3)n(C)c(=O)c2c1 (centres unmarked) [Example 10, 2-((1-(3-(3,5-difluorophenyl)-2,7-dimethyl-1-oxo-1,2-dihydroisoquinolin-5-yl)ethyl)amino)benzoic acid] | > 10000 | 2730 | 82 | 8080 | 33.3 |
| Cc1cc(C(C)Nc2ccccc2C(=O)O)c2cc(-c3ccc(F)cc3F)n(C)c(=O)c2c1 (centres unmarked) [Example 11, 2-((1-(3-(2,4-difluorophenyl)-2,7-dimethyl-1-oxo-1,2-dihydroisoquinolin-5-yl)ethyl)amino)benzoic acid] | > 10000 | > 10000 | 80.2 | 21100 | >125 |
| Cc1cc(C(C)Nc2ccccc2C(=O)O)c2cc(-c3cccc(F)c3F)n(C)c(=O)c2c1 (centres unmarked) [Example 12, 2-((1-(3-(2,3-difluorophenyl)-2,7-dimethyl-1-oxo-1,2-dihydroisoquinolin-5-yl)ethyl)amino)benzoic acid] | > 10000 | 2160 | 55.3 | 6690 | 39.0 |
| COc1cccc(-c2cc3c(C(C)Nc4ccccc4C(=O)O)cc(C)cc3c(=O)n2C)c1 (centres unmarked) [Example 13, 2-((1-(3-(3-methoxyphenyl)-2,7-dimethyl-1-oxo-1,2-dihydroisoquinolin-5-yl)ethyl)amino)benzoic acid] | > 10000 | 3590 | 64 | 5820 | 56.1 |
| COc1ccc(-c2cc3c(C(C)Nc4ccccc4C(=O)O)cc(C)cc3c(=O)n2C)cc1 (centres unmarked) [Example 14, 2-((1-(3-(4-methoxyphenyl)-2,7-dimethyl-1-oxo-1,2-dihydroisoquinolin-5-yl)ethyl)amino)benzoic acid] | > 10000 | 2060 | 63.2 | 3720 | 32.5 |
